The source made the active and inactive calls.
Tests used:
[1] = test system: H4; assay: Luminescence Cell-Based Dose Response HTS to Identify Activators of 5'UTR Stem-Loop Driven Prion Protein mRNA Translation in H4 Neuroglioblastoma Cells. [Related pubchem assays: 1829 (Project Summary), 1814 (Primary HTS)]; assay type: functional; conditions: Homo sapiens
[2] = target: T1, Oxysterols receptor LXR-beta (Homo sapiens, UniProt P55055); assay type: functional, cell-based;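 further: agonist activity at LXR measured by a cell-based luminescence readout across a dose range, run as a counterscreen for daf-12 agonists; HEK293 cells with Gal4-LXR fusion and GAL4-driven luciferase reporter; potency for activation of Gal4-LXR reporter so compounds are agonists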
T1 sequence (P55055 whole entry): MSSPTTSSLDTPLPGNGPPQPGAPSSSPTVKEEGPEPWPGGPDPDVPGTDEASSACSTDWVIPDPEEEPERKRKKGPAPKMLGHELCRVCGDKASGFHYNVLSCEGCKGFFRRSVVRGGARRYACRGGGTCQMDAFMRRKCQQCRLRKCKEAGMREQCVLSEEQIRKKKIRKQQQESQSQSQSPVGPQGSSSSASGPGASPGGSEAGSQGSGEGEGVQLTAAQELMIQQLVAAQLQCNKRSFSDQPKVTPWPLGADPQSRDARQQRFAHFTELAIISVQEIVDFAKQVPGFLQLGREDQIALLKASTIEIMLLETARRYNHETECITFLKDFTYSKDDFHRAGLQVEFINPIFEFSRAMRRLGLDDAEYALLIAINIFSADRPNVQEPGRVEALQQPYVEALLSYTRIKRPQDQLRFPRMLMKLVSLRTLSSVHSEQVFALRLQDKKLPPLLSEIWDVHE

[3] = target: T2, Alkaline phosphatase, tissue-nonspecific isozyme (Homo sapiens, UniProt P05186); assay: potency against alkaline phosphatase TNAP – biochemical, luminescent, dose response, SAR follow-up (AID 1056)
T2 sequence (P05186 whole entry): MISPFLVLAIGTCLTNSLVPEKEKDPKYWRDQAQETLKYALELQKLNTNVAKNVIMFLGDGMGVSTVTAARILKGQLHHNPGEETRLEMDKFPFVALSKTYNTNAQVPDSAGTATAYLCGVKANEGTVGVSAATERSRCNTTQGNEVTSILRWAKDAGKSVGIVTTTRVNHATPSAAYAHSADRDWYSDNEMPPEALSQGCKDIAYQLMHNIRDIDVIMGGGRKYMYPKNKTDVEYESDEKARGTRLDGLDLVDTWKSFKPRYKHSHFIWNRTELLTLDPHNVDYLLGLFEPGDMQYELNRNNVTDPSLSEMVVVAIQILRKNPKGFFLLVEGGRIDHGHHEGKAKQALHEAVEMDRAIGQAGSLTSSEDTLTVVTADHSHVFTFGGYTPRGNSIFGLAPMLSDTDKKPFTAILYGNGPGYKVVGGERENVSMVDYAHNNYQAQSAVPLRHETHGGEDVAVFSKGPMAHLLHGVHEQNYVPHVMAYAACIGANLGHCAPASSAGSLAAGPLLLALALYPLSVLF

[4] = target: Albumin (Bos taurus, UniProt P02769); assay: Counterscreen for inhibitors of T-cell receptor (TCR)-CD3 interaction: Fluorescence-based biochemical high throughput dose response assay to identify inhibitors of T-cell receptor (TCR)-CD3 interaction using a TAMRA-labeled BSA probe.; assay type: functional
[5] = target: T3, RNA-editing ligase 1, mitochondrial (Trypanosoma brucei brucei, UniProt P86926); assay: inhibition of trypanosome RNA editing ligase – biochemical, fluorescence, Trypanosoma brucei, dose response (AID 1117295); assay type: functional
T3 sequence (P86926 whole entry): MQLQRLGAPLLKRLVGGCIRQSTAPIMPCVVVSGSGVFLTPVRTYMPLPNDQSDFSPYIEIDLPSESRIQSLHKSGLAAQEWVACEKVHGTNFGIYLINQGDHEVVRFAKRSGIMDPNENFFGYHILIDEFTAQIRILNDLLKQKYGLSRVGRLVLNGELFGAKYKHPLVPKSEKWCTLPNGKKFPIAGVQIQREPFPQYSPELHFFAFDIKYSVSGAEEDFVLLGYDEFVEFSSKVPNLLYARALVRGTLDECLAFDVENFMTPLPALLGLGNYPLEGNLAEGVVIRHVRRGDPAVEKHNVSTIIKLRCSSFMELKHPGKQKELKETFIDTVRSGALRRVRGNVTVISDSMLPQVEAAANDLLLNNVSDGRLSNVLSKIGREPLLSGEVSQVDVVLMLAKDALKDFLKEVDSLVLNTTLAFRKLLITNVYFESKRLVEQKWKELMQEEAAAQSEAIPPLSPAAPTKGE

[6] = HeLa cell viability loss – 24 h, dry powder, set 2, cytotoxicity control, dose response (AID 651774); assay type: functional, cell-based
[7] = target: Kallikrein-7 (Homo sapiens, UniProt P49862); assay: Fluorescence Intensity-based biochemical primary high throughput dose response assay to identify activators of kallikrein-7 (K7) zymogen.
[8] = optical artefact potency, substrate without enzyme – biochemical, fluorescence intensity, triplicate, artefact control for kallikrein-7 zymogen activator project, dose response (AID 720493)
[9] = inhibition of mouse IRAP aminopeptidase activity – biochemical, Leu-AMC fluorescence, cherry-picked samples, set 2, selectivity assay for ERAP1 modulator project, dose response (AID 743340)
[10] = A549 cell cytotoxicity, dose response, cytotoxicity control, plate reader, cherry-pick, antagonist series (AID 743412); assay type: functional, cell-based
[11] = toxicity toward HepG2 liver cells – cell-based, plate reader, cherry-pick, antagonist series, cytotoxicity control, dose response (AID 743416); assay type: functional
[12] = blockers of bursicon-stimulated LGR2 cAMP reporter – cell-based, HEK293, CRE-luciferase reporter, cherry pick, set 2, dose response (AID 743343); assay type: functional;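 further: transfected cells were stimulated with diluted bursicon conditioned medium after compound addition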
[13] = blockade of melanocortin 4 receptor signaling – cell-based, plate reader, cherry pick, counter-screen for LGR2 antagonist project, dose response (AID 743444); assay type: functional;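 further: transfected HEK 293 cells stimulated with alpha-MSH peptide; potency of inhibitors of the alpha-MSH evoked signal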
[14] = target: T4, Methionyl-tRNA synthetase, putative (Trypanosoma brucei brucei, UniProt Q38C91); assay type: functional, Trypanosoma brucei brucei strain 927/4 GUTat10.1
T4 sequence (Q38C91 whole entry): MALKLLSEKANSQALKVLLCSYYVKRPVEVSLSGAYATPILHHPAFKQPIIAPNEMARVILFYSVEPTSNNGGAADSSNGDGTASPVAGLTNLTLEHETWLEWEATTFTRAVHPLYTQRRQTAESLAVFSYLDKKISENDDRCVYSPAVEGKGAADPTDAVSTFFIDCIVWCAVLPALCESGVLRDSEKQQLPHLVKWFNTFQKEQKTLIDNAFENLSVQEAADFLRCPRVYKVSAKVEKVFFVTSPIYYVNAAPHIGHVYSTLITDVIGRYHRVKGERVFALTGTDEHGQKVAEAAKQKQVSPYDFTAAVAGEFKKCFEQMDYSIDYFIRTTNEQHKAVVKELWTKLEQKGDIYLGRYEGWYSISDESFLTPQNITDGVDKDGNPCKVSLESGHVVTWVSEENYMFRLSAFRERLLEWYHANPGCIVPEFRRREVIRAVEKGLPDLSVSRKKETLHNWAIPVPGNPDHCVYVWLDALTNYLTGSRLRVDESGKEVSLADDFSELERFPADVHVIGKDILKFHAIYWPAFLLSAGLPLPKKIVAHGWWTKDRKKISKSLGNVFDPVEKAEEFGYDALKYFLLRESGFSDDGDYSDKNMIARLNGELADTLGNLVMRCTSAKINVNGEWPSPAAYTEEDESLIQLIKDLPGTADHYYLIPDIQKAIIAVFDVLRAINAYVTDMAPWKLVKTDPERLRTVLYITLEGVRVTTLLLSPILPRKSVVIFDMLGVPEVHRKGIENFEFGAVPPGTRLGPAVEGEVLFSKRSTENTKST

[15] = Counterscreen for inhibitors of Trypanosoma brucei methionyl tRNA synthetase (MetRS): Luminescence-based cell-based high throughput dose response assay to identify compounds that are cytotoxic to Jurkat human T lymphocyte cells.; assay type: functional
[16] = target: T4, Methionyl-tRNA synthetase, putative; assay type: functional, Trypanosoma brucei brucei strain 927/4 GUTat10.1; remark: listed apart in the source
[17] = Late stage counterscreen for inhibitors of Trypanosoma brucei methionyl tRNA synthetase (MetRS): Luminescence-based cell-based high throughput dose response assay to identify compounds that are cytotoxic to Jurkat human T lymphocyte cells.; assay type: functional

Kallikrein-7, sequence (P49862 whole entry): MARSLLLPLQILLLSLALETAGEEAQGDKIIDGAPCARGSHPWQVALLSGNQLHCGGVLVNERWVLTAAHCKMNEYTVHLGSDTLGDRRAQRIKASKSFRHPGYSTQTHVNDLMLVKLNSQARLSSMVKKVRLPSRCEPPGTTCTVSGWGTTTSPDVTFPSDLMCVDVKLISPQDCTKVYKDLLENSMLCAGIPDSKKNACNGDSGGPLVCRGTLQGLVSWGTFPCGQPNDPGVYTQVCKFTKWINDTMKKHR
Albumin, sequence (P02769 whole entry): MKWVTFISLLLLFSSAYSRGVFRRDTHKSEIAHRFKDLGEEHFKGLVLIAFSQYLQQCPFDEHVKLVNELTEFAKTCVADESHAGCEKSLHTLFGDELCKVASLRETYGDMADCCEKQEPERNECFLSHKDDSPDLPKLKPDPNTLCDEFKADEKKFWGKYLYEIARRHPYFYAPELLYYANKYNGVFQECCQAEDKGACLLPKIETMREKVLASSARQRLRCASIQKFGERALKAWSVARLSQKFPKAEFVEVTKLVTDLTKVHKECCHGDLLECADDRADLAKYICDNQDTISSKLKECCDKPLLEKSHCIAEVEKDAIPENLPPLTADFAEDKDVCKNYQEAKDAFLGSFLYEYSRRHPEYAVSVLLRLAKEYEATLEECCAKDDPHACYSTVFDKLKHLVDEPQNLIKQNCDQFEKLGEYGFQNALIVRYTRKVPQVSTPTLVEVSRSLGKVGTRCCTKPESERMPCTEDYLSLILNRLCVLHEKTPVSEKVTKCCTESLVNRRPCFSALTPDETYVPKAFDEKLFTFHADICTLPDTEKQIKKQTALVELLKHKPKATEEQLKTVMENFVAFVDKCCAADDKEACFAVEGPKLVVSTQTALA

COC(=O)C1C(=O)c2c([nH]c(C(=O)OC3CCCCC3)c2C)CC1C (configuration not stated)
EC50 [1]: 8.72 µM (active)
EC50 [2]: > 67.5 µM (inactive)

Cc1nc2ccccc2n1CC(=O)c1ccc(O)c(O)c1
IC50 [3]: 20.2 µM (active)
IC50 [4]: > 94 µM (inactive)
IC50 [5]: > 96.6 µM (inactive)

c1ccc(-c2ccc(CCNC3CCCC3)cc2)cc1
AC50 [6]: > 70 µM (inactive)

CC1Nc2ccccc2C(=O)N1NS(C)(=O)=O (configuration not stated)
EC50 [7]: 10.3 µM (inactive)
EC50 [8]: > 7.73 µM (active)

COc1ccc(CN(C)C[C@@H]2OCCCC[C@@H](C)Oc3ccc(NS(=O)(=O)c4c(C)noc4C)cc3C(=O)N([C@@H](C)CO)C[C@@H]2C)cc1
AC50 [9]: 16.2 µM (active)

Cc1ccc2nc(-c3ccccc3)nn2c1
AC50 [10]: > 52 µM (inactive)
AC50 [11]: > 52 µM (inactive)
AC50 [12]: 2.48 µM (active)
AC50 [13]: 3.56 µM (active)

COc1cccc(NC(=O)CSc2n[nH]c3c4cc(C)ccc4nc-3n2)c1
IC50 [14]: 0.101 µM (active)
IC50 [15]: 83.3 µM (inactive)
IC50 [16]: 0.0483 µM (active)
IC50 [17]: > 83.3 µM (inactive)
